This is an account of results in US11833156B2, “Heterocyclic compounds as pad inhibitors” (JUBILANT EPIPAD LLC, priority 2017, dated 2023).

pIC50: −log10 of the molar value. Counter-ions that a name gives are not always drawn.

The assay has as its target PAD4 enzyme (Homo sapiens (Human), UniProt Q9UM07). Nature of the assay: Ammonia Release Biochemical Assay (citrullination detected via ammonia release). The settings on record: PAD4 120 nM, substrate BAEE, 60-min preincubation, read-out: NH3 release. How it is done: Ammonia Release Biochemical Assay
Citrullination assay was detected via ammonia release. PAD4 enzyme was diluted to 120 nM in assay buffer (100 mM HEPES, 50 mM NaCl, 2 mM DDT, 0.6 mg/mL BSA, pH 7.4) added to wells containing various concentration of compound or DMSO vehicle (1% final) in black 384 well plate. Following a 60-min preincubation at room temperature, the reaction was initiated by the addition of substrate (1.5 mM BAEE in 200 mM HEPES, 50 mM NaCl, 350 uM CaCl2, 2 mM, pH 7.4). The reaction was stopped after 60 min by addition of stop/detection buffer containing 50 mM EDTA, 2.6 mM of o-phthaladehyde and 2.6 mM DTT. Assay was incubated at room temperature for 90 min before measuring fluorescence's (λex 405/λem 460 nm) on Tecan reader. IC50 was calculated using XL-fit software model 205. (Ref: Nat Chem Biol. 2015 March; 11(3):189-91).

PAD4 enzyme, sequence (Q9UM07 whole entry): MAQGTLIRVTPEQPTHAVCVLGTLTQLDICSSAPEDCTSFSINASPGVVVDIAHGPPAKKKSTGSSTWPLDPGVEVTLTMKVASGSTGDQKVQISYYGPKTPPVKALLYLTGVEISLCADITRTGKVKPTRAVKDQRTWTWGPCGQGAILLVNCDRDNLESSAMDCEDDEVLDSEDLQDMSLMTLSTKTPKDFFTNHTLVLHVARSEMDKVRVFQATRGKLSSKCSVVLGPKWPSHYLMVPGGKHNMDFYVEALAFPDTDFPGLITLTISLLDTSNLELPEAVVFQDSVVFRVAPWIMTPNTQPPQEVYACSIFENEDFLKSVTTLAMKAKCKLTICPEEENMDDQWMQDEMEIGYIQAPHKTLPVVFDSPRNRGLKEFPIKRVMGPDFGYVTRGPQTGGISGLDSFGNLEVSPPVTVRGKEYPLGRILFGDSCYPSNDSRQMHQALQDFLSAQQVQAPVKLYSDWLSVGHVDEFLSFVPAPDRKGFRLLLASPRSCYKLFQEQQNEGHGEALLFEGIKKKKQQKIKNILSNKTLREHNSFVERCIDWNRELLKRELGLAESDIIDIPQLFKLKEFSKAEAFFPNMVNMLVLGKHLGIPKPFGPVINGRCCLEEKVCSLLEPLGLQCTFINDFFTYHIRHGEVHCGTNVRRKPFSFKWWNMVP

Regarding `N[C@@H]1CCCN(C(=O)c2cc3c4c(c2)nc(-c2cc5ccccc5n2Cc2ncccc2F)n4CCO3)C1` [Example 26, (R)-(3-aminopiperidin-1-yl)(2-(1-((3-fluoropyridin-2-yl)methyl)-1H-indol-2-yl)-3,4-dihydro-5-oxa-1,2a-diazaacenaphthylen-7-yl)methanone], the pIC50 was ≥ 6.00.

As for `N[C@@H]1CCCN(C(=O)c2cc3c4c(c2)nc(-c2cc5ccccc5n2CC2CC2)n4CCN3C2CC2)C1` [Example 78, (R)-(3-aminopiperidin-1-yl)(6-cyclopropyl-2-(1-(cyclopropylmethyl)-1H-indol-2-yl)-5,6-dihydro-4H-imidazo[1,5,4-de]quinoxalin-8-yl)methanone], the pIC50 was ≥ 6.00.

`N[C@@H]1CCCN(C(=O)c2cc3c4c(c2)nc(-c2cc5cccc(Cl)c5n2Cc2cncnc2)n4CCO3)C1` [Example 88, (R)-(3-aminopiperidin-1-yl)(2-(7-chloro-1-(pyrimidin-5-ylmethyl)-1H-indol-2-yl)-3,4-dihydro-5-oxa-1,2a-diazaacenaphthylen-7-yl)methanone]: the pIC50 was 5.00 to 6.00.

For the molecule `N[C@@H]1CCCN(C(=S)c2cc3c4c(c2)nc(-c2cc5ccccc5n2CC2CC2)n4CCN3)C1` [Example 86, (R)-(3-aminopiperidin-1-yl)(2-(1-(cyclopropylmethyl)-1H-indol-2-yl)-5,6-dihydro-4H-imidazo [1,5,4-de]quinoxalin-8-yl)methanethione], the pIC50 was ≥ 6.00.

`COCCn1c(-c2nc3cc(C(=O)N4CCC[C@@H](N)C4)cc4c3n2CCO4)cc2ccc(F)cc21` [Example 52]: the pIC50 was 5.00 to 6.00.

As for `N[C@@H]1CCCN(C(=O)c2cc3c4c(c2)nc(-c2cc5ccccc5n2Cc2cncnc2)n4CCO3)C1` [Example 29, (R)-(3-aminopiperidin-1-yl)(2-(1-(pyrimidin-5-ylmethyl)-1H-indol-2-yl)-3,4-dihydro-5-oxa-1,2a-diazaacenaphthylen-7-yl)methanone], the pIC50 was 5.00 to 6.00.

For the molecule `COCCn1c(-c2nc3cc(C(=O)N4CCC[C@@H](N)C4)cc4c3n2CCO4)cc2cccc(Cl)c21` [Example 36, (R)-(3-aminopiperidin-1-yl)(2-(7-chloro-1-(2-methoxyethyl)-1H-indol-2-yl)-3,4-dihydro-5-oxa-1,2a-diazaacenaphthylen-7-yl)methanone], the pIC50 was ≥ 6.00.

Turning to `N[C@@H]1CCCN(C(=O)c2cc3c4c(c2)nc(-c2cc5ccccc5n2CC2CC2)n4CCN3S(=O)(=O)CCc2ccccc2)C1` [Example 79, (R)-(3-aminopiperidin-1-yl)(2-(1-(cyclopropylmethyl)-1H-indol-2-yl)-6-(phenethylsulfonyl)-5,6-dihydro-4H-imidazo[1,5,4-de]quinoxalin-8-yl)methanone], the pIC50 is 5.00 to 6.00.

As for `N[C@@H]1CCCN(C(=O)c2cc3c4c(c2)nc(-c2cc5cccc(Cl)c5n2CC2CC2)n4CCO3)C1` [Example 57, (R)-(3-aminopiperidin-1-yl)(2-(7-chloro-1-(cyclopropylmethyl)-1H-indol-2-yl)-3,4-dihydro-5-oxa-1,2a-diazaacenaphthylen-7-yl)methanone], the pIC50 was ≥ 6.00.

In the case of `N[C@@H]1CCCN(C(=O)c2cc3c4c(c2)nc(-c2cc5cccc(Cl)c5n2Cc2ncccc2F)n4CCO3)C1` [Example 34, (R)-(3-aminopiperidin-1-yl)(2-(7-chloro-1-((3-fluoropyridin-2-yl)methyl)-1H-indol-2-yl)-3,4-dihydro-5-oxa-1,2a-diazaacenaphthylen-7-yl)methanone], the pIC50 is ≥ 6.00.

With `N[C@@H]1CCCN(C(=O)c2cc3c4c(c2)nc(-c2cc5ccccc5n2Cc2ncccn2)n4CCO3)C1` [Example 27, (R)-(3-aminopiperidin-1-yl)(2-(1-(pyrimidin-2-ylmethyl)-1H-indol-2-yl)-3,4-dihydro-5-oxa-1,2a-diazaacenaphthylen-7-yl)methanone], the pIC50 was ≥ 6.00.

For `N[C@@H]1CCCN(C(=O)c2cc3c4c(c2)nc(-c2cc5ccccc5n2CC2CC2)n4CCN3S(=O)(=O)c2ccc(Cl)cc2)C1` [Example 81, (R)-(3-aminopiperidin-1-yl)(6-((4-chlorophenyl)sulfonyl)-2-(1-(cyclopropylmethyl)-1H-indol-2-yl)-5,6-dihydro-4H-imidazo[1,5,4-de]quinoxalin-8-yl)methanone], the pIC50 is ≤ 5.00.

On to `N[C@@H]1CCCN(C(=O)c2cc3c4c(c2)nc(-c2cc5ccccc5n2CC2CCNCC2)n4CCO3)C1` [Example 43, (R)-(3-aminopiperidin-1-yl)(2-(1-(piperidin-4-ylmethyl)-1H-indol-2-yl)-3,4-dihydro-5-oxa-1,2a-diazaacenaphthylen-7-yl)methanone], for which the pIC50 is ≤ 5.00.

As for `N[C@@H]1CCN(C(=O)c2cc3c4c(c2)nc(-c2cc5ccccc5n2CC2CC2)n4CCO3)C1` [Example 2, (R)-(3-aminopyrrolidin-1-yl)(2-(1-(cyclopropylmethyl)-1H-indol-2-yl)-3,4-dihydro-5-oxa-1,2a-diazaacenaphthylen-7-yl)methanone], the pIC50 was 5.00 to 6.00.

As for `Cc1csc(Cn2c(-c3nc4cc(C(=O)N5CCC[C@@H](N)C5)cc5c4n3CCO5)cc3ccccc32)n1` [Example 59, (R)-(3-aminopiperidin-1-yl)(2-(1-((4-methylthiazol-2-yl)methyl)-1H-indol-2-yl)-3,4-dihydro-5-oxa-1,2a-diazaacenaphthylen-7-yl)methanone], the pIC50 was ≥ 6.00.

For the molecule `N[C@@H]1CCCN(C(=O)c2cc3c4c(c2)nc(-c2cc5ccc(F)cc5n2Cc2ccc(F)cc2)n4CCO3)C1` [Example 49, (R)-(3-aminopiperidin-1-yl)(2-(6-fluoro-1-(4-fluorobenzyl)-1H-indol-2-yl)-3,4-dihydro-5-oxa-1,2a-diazaacenaphthylen-7-yl)methanone], the pIC50 is ≥ 6.00.

With `N[C@@H]1CCCN(C(=O)c2cc3c4c(c2)nc(-c2cc5ccccc5n2CC2CC2)n4CCCO3)C1` [Example 6, (R)-(3-aminopiperidin-1-yl)(1-(1-(cyclopropylmethyl)-1H-indol-2-yl)-8,9-dihydro-7H-6-oxa-2,9a-diazabenzo[cd]azulen-4-yl)methanone], the pIC50 was 5.00 to 6.00.

`CN(C)C/C=C/C(=O)N[C@@H]1CCCN(C(=O)c2cc3c4c(c2)nc(-c2cc5ccccc5n2CC2CC2)n4CCO3)C1` [Example 38, (R,E)-N-(1-(2-(1-(cyclopropylmethyl)-1H-indol-2-yl)-3,4-dihydro-5-oxa-1,2a-diazaacenaphthylene-7-carbonyl)piperidin-3-yl)-4-(dimethylamino)but-2-enamide trifluoroacetic acid salt]: the pIC50 was ≤ 5.00.

Regarding `N[C@@H]1CCCN(C(=O)c2cc3c4c(c2)nc(-c2cc5cccc(Cl)c5n2CC(F)F)n4CCO3)C1` [Example 56, (R)-(3-aminopiperidin-1-yl)(2-(7-chloro-1-(2,2-difluoroethyl)-1H-indol-2-yl)-3,4-dihydro-5-oxa-1,2a-diazaacenaphthylen-7-yl)methanone], the pIC50 is ≥ 6.00.

In the case of `N[C@@H]1CCCN(C(=O)c2cc3c4c(c2)nc(-c2cc5cc(Br)ccc5n2CC2CC2)n4CCN3)C1` [Example 67, (R)-(3-aminopiperidin-1-yl)(2-(5-bromo-1-(cyclopropylmethyl)-1H-indol-2-yl)-5,6-dihydro-4H-imidazo [1,5,4-de]quinoxalin-8-yl)methanone], the pIC50 was ≥ 6.00.
